Measured values published in patent US20100286093A1, “ANTI-INFLAMMATORY COMPOSITION CONTAINING DOCOSAHEXAENOYL LYSOPHOSPHATIDYLAMINE AS AN ACTIVE INGREDIENT” (The Industry & Academic Cooperation in Chungnam National …, priority 2009, published 2010).

Legend:
[1] = system: zymosan A induced plasma leakage; test: Zymosan A induced plasma leakage in peritoneal fluid (Evans blue), intravenous injection; format: in vivo, mice
Method: To investigate inhibitory effect of docosahexaenoyl lysophosphatidylcholine on peritonitis induced by zymosan, the present inventors induced inflammation in abdominal cavity by injecting zymosan A (saccharomyces cerevisiae) (Sigma-Aldrich Corp, St. Louis, Mo., USA), and then administered lysophosphatidylcholine, followed by evaluation of anti-inflammatory effect. Particularly, SPF mice (6 weeks, male) were adapted for 12 hours and then raised in an animal laboratory at College of Pharmacy under 12/12 hour dark/light cycle. Then, the mice were used for intra-abdominal inflammatory response experiment. First, each experimental group was composed of 5˜10 mice, to which 10˜500 μg/kg of each lysophosphatidylcholine was injected through tail vein. The control group was injected with 50˜100 ul of saline. 30 minutes later, 0.5% Evans blue dye solution (0.2 ml) was injected through tail vein and then 100 ul of zymosan A (1 mg/ml) dissolved in saline was injected into abdominal cavity. 30 minutes after the administration, the mice were anesthetized lightly with ether or fluorine, followed by neck dissection. 4 ml of ice-cold PBS was injected into abdominal cavity and peritoneal fluid was recovered by using a plastic syringe, followed by centrifugation (3,000 rpm, 10 minutes). Supernatant was obtained from the centrifugation, with which exudation of Evans blue was measured by spectrophotometer at 620 nm to evaluate anti-inflammatory effect (Arita M, et al., Proc Natl Acad Sci USA. 2005 May 24; 102(21):7671-6; Takenaka M, et al., Biol Pharm Bull. 2005 July; 28(7):1291-3).
The present inventors measured time-dependent anti-inflammatory effect (inhibitory effect on zymosan A induced plasma leakage) of each lysophosphatidylcholine. Particularly, docosahexaenoyl lysophosphatidylcholine (50 μg/kg) was injected to mice through tail vein at different time intervals (15 minutes—120 minutes; […], 30 minutes, 60 minutes and 120 minutes before zymosan A administration). After administrating zymosan A ([…]) via intraperitoneal injection, Evans blue was treated, followed by measuring plasma leakage in peritoneal fluid.
Particularly, docosahexaenoyl lysophosphatidylcholine (50 μg/kg), docosahexaenoic acid (50 μg/kg) or 17-HPDHA lysophosphatidylcholine (17(S)-hydroperoxy-4,7,10,13,15,19-docosahexaenoyl lysophosphatidylcholine) were compared. Soybean LOX-1 (200 units/ml) was added in borax buffer (50 mM, pH 9.0) containing docosahexaenoyl lysophosphatidylcholine (20 uM), followed by reaction at 25° C. for 30 minutes, which was passed through C18 column (2×1 cm) and eluted with methanol (Huang L S, et al., J Agric Food Chem. 2008 Sep. 10; 56(17):7808-14)] (50 μg/kg) was treated to mice 30 minutes before zymosan A injection. 30 minutes later, plasma leakage in peritoneal fluid was measured.
The present inventors intravenously injected docosahexaenoyl lysophosphatidylethanolamine into mice at the concentration of 15˜150 μg/kg. 30 Min later, 100 ul of zymosan A(1 mg/ml) was treated thereto to induce inflammation in abdominal cavity. After administering 0.5% Evans blue, plasma leakage in peritoneal fluid was measured.

[2] = system: zymosan A induced plasma leakage; test: Zymosan A induced plasma leakage in peritoneal fluid (Evans blue), intraperitoneal injection; format: in vivo, mice; conditions: i.p.
Method: The present inventors intraperitoneally injected docosahexaenoyl lysophosphatidylcholine or 17-HPDHA lysophosphatidylcholine (docosahexaenoyl lysophosphatidylcholine oxide) into mice at the concentration of 15˜150 μg/kg. The control group was injected with 50˜100 ul of saline. 2 Hours later, 0.5% Evans Blue dye solution (0.2 ml) was injected through tail vein, followed by intraperitoneal injection of 100 ul of zymosan A (1 mg/ml) dissolved in saline. 30 minutes later, the mice were slightly anesthetized with ether or fluorine, followed by neck dissection. 4 ml of ice-cold PBS was injected into abdominal cavity and peritoneal fluid was recovered by using a plastic syringe, followed by centrifugation (3,000 rpm, 10 minutes). Exudation of Evans blue was measured to evaluate anti-inflammatory effect.

[3] = system: RAW 264.7 cells; test: LPS induced NO generation in RAW 264.7 cells (Griess reagent); format: cell-based
Text: Macrophages are known to play an important role in inflammatory response and host defense. When macrophages are activated by lipopolysaccharide (LPS), a huge amount of NO (nitric oxide) is generated, which is mediated by inducible nitric oxide synthase (iNOS).
Based on that, the present inventors observed how unsaturated fatty acid containing lysophosphatidylcholine (lysoPC) affected the generation of NO, the inflammation mediator, induced by LPS in RAW 264.7 cells. Particularly, RAW 264.7 cells (5×10^4/well) were pre-cultured with each polyunsaturated lysophosphatidylcholine; linoleoyl lysophosphatidylcholine, arachidonoyl lysophosphatidylcholine and docosahexaenoyl lysophosphatidylcholine [prepared by the co-treatment with diacyl phosphatidylcholine (Avanti Polar Lipids, Alabaster, Ala., USA) and phospholipase A2 (PLA2, Sigma-Aldrich Corp, St. Louis, Mo., USA) (Croset, M. et al., Biochem. J. 2000, 345, 61-67; Adachi, J. et al., Kobe. J. Med. Sci. 2006, 52, 127-140)] (0˜60 uM) at 37° C. for 2 hours. Then, LPS (1 μg/ml) was added thereto, followed by culture for 20 hours under the same conditions as the above. […] Then, OD540 was measured to measure NO generation (Green L C, et al., Anal Biochem. 1982 October; 126(1):131-8).

17(S)-hydroperoxy-4,7,10,13,15,19-docosahexaenoyl lysophosphatidylcholine [17-HPDHA lysophosphatidylcholine]
inhibitory effect on plasma leakage (metabolite comparison) ([1]; 50 μg/kg, 30 minutes before zymosan A injection, compared to docosahexaenoyl lysophosphatidylcholine): a greater inhibitory effect
inhibitory effect on zymosan induced plasma leakage ([2]; 15 μg/kg or higher, 2 hours before zymosan A): significant
effectiveness in comparison with docosahexaenoyl lysophosphatidylcholine ([2]; 15~150 μg/kg): somewhat more effective than docosahexaenoyl lysophosphatidylcholine
inhibition of zymosan induced plasma leakage, dose dependence ([2]; up to 150 μg/kg): dose-dependent

CCCCC/C=C\C/C=C\CCCCCCCC(=O)OC[C@@H](O)COP(=O)([O-])OCC[N+](C)(C)C [linoleoyl lysophosphatidylcholine, reference compound]
inhibition of zymosan induced plasma leakage, dose dependence ([1]; i.v., up to 500 μg/kg): did not show inhibitory effect
inhibitory effect on NO generation induced by LPS ([3]; up to 60 uM): did not show any significant inhibitory effect

arachidonoyl lysophosphatidylcholine [reference compound]
reduction of zymosan induced plasma leakage ([1]; 50 μg/kg i.v.): reduced plasma leakage significantly
reduction of zymosan induced plasma leakage ([1]; 150 μg/kg i.v.): more peculiar
reduction of zymosan induced plasma leakage ([1]; 500 μg/kg i.v., versus 150 μg/kg): this effect was not increased any more
inhibition of NO generation induced by LPS ([3]; 60 uM): ≤ 20%

docosahexaenoyl lysophosphatidylethanolamine
inhibitory effect on zymosan A induced plasma leakage ([1]; i.v., 50 μg/kg or higher, 30 min before zymosan A): significant inhibitory effect
inhibition of zymosan A induced plasma leakage, dose dependence ([1]; i.v., up to 150 μg/kg): inhibited zymosan A induced plasma leakage dose-dependently
